Data: ChEMBL document CHEMBL5212743, “Selectivity Literature for EUbOPEN Chemogenomics Library wave 3” (2023)
Each block holds one molecule with its values, some of them ahead of it.

Experiments:
[1] = molecular target: Dual specificity mitogen-activated protein kinase kinase 4 (Homo sapiens) (UniProt P45985); assay: Selectivity interaction (KinomeScan (DiscoverX)) EUB0000691a MAP2K4; settings: at 10 µM
[2] = molecular target: Phosphatidylinositol 3-kinase C2 domain-containing subunit gamma (Homo sapiens) (UniProt O75747); assay: Selectivity interaction (KinomeScan (DiscoverX)) EUB0000691a PIK3C2G; settings: at 10 µM
[3] = molecular target: T1, Cyclin-G-associated kinase (Homo sapiens) (UniProt O14976); assay: Selectivity interaction (KinomeScan (DiscoverX)) EUB0000691a GAK; settings: at 10 µM
T1 sequence (whole entry): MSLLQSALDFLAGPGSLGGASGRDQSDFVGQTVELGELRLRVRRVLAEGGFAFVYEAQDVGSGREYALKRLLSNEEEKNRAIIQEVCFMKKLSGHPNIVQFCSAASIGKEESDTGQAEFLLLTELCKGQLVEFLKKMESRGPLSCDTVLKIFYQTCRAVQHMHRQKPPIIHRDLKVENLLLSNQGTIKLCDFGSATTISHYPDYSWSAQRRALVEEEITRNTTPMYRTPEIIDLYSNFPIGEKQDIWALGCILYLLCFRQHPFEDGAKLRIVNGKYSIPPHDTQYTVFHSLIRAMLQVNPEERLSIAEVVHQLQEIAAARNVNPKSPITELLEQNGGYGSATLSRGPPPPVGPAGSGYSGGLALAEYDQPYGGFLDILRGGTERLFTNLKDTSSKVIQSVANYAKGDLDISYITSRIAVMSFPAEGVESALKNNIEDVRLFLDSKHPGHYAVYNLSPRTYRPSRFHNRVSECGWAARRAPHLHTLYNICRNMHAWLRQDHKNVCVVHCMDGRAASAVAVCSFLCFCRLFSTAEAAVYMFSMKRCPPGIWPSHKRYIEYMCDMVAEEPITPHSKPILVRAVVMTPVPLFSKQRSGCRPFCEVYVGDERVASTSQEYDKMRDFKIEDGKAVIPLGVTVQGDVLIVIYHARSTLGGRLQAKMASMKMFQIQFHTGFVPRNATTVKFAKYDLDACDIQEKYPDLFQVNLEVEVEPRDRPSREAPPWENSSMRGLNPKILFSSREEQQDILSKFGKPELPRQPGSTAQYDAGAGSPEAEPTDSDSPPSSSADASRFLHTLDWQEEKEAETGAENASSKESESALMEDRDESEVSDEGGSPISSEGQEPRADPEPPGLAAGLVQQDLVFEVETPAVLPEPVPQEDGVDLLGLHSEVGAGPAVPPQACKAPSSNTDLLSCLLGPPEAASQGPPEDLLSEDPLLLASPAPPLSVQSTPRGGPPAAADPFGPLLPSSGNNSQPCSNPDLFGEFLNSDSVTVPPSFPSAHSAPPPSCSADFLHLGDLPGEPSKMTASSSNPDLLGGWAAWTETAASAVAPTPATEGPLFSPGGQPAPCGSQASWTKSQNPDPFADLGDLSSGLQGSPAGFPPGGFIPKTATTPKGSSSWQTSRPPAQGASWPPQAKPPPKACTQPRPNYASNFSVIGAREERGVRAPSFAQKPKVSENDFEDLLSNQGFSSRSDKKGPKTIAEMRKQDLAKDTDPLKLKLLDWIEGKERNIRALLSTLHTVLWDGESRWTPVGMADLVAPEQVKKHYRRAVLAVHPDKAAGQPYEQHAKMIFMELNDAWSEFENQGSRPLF

[4] = molecular target: Serine/threonine-protein kinase 16 (Homo sapiens, UniProt O75716); assay: Selectivity interaction (KinomeScan (DiscoverX)) EUB0000691a STK16; settings: at 10 µM
[5] = molecular target: Dual specificity protein kinase TTK (Homo sapiens) (UniProt P33981); assay: Selectivity interaction (KinomeScan (DiscoverX)) EUB0000691a TTK; settings: at 10 µM
Sequence of Dual specificity protein kinase TTK (Homo sapiens) (P33981 whole entry): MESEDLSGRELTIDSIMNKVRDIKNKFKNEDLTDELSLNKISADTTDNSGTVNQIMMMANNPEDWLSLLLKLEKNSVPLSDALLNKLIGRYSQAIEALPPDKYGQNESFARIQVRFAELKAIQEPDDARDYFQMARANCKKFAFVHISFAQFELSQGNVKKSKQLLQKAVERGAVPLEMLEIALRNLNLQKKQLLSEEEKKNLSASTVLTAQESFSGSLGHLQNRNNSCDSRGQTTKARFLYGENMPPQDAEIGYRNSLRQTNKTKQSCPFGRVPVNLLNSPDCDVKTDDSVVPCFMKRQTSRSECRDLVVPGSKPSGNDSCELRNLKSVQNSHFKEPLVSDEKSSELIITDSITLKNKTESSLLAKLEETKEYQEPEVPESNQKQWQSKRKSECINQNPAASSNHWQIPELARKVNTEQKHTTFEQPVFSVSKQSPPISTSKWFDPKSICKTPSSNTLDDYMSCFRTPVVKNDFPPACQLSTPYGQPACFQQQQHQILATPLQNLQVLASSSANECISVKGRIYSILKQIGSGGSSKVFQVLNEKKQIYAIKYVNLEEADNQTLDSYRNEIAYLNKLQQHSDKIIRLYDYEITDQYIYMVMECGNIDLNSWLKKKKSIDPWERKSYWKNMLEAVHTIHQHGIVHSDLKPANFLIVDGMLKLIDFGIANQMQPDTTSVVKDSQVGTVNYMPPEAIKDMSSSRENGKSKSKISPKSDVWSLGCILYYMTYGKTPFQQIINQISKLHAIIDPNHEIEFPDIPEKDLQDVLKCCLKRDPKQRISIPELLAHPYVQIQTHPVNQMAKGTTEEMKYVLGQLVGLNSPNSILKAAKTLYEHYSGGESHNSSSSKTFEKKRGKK

[6] = molecular target: Tyrosine-protein kinase JAK1 (Homo sapiens, UniProt P23458); assay: Selectivity interaction (KinomeScan (DiscoverX)) EUB0000691a JAK1@kinase 1; settings: at 10 µM
Sequence of Tyrosine-protein kinase JAK1 (P23458 whole entry): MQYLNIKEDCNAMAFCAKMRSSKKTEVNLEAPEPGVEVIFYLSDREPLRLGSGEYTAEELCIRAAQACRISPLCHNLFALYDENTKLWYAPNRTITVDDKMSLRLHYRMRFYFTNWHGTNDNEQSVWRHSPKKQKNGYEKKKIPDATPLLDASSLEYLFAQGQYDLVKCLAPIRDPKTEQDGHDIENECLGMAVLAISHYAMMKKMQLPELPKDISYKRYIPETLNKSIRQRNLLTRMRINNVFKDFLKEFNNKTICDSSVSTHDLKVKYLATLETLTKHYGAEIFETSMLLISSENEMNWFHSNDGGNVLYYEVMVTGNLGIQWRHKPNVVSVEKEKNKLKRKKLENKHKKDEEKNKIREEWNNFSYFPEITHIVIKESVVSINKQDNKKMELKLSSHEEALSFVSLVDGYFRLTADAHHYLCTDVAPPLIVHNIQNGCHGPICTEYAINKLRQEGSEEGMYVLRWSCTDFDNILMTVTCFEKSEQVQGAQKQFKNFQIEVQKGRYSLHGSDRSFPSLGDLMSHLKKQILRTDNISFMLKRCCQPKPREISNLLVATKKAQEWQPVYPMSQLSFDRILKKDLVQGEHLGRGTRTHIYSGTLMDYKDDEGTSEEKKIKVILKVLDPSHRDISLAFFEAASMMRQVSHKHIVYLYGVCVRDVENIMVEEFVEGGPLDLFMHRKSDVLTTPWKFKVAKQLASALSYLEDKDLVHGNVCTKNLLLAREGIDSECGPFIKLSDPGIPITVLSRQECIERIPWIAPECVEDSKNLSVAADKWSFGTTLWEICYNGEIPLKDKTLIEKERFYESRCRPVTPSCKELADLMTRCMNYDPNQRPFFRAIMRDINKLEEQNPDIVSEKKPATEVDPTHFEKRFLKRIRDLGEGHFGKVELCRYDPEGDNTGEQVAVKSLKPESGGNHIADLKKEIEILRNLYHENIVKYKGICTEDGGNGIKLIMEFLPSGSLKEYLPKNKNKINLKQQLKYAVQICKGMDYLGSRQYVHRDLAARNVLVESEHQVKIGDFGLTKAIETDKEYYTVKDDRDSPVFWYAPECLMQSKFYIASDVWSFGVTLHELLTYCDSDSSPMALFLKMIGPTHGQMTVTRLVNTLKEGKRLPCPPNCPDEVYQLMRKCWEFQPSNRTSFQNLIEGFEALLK

[7] = molecular target: Tyrosine-protein kinase ABL2 (Homo sapiens) (UniProt P42684); assay: Selectivity interaction (KinomeScan (DiscoverX)) EUB0000686a ABL2; settings: at 1 µM
[8] = molecular target: Bromodomain-containing protein 1 (Homo sapiens) (UniProt O95696); assay: Selectivity interaction (Bromodomain panel (DSF assay)) EUB0000224e BRD1
Sequence of Bromodomain-containing protein 1 (Homo sapiens) (O95696 whole entry): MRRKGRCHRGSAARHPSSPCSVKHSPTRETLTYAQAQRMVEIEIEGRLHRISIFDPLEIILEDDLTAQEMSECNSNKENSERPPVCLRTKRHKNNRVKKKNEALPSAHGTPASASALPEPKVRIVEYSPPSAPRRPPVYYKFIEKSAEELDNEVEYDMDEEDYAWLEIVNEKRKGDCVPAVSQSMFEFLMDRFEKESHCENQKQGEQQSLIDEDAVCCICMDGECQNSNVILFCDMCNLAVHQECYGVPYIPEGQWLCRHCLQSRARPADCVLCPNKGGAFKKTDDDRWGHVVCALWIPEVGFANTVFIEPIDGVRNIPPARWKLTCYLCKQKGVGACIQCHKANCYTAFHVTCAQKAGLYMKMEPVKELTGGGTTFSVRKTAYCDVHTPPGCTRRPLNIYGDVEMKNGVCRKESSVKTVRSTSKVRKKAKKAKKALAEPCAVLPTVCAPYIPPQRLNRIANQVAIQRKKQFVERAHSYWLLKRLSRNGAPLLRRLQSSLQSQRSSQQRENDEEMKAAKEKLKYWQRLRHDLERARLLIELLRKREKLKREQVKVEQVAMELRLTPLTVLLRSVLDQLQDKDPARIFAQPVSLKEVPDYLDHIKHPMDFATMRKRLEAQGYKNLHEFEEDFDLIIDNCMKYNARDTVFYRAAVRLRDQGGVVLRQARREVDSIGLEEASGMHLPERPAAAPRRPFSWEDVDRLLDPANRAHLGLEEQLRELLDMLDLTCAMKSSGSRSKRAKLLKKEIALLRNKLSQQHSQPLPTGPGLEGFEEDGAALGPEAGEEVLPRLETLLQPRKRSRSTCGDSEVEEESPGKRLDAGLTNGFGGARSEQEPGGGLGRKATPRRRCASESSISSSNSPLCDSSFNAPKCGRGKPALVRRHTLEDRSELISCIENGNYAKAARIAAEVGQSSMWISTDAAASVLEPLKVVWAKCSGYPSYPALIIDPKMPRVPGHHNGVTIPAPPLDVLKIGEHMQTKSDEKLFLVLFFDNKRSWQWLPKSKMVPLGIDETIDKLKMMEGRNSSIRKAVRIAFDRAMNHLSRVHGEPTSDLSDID

[9] = molecular target: Chromatin remodeling regulator CECR2 (Homo sapiens, UniProt Q9BXF3); assay: Selectivity interaction (Bromodomain panel (DSF assay)) EUB0000224e CECR2
Sequence of Chromatin remodeling regulator CECR2 (Q9BXF3 whole entry, looked up): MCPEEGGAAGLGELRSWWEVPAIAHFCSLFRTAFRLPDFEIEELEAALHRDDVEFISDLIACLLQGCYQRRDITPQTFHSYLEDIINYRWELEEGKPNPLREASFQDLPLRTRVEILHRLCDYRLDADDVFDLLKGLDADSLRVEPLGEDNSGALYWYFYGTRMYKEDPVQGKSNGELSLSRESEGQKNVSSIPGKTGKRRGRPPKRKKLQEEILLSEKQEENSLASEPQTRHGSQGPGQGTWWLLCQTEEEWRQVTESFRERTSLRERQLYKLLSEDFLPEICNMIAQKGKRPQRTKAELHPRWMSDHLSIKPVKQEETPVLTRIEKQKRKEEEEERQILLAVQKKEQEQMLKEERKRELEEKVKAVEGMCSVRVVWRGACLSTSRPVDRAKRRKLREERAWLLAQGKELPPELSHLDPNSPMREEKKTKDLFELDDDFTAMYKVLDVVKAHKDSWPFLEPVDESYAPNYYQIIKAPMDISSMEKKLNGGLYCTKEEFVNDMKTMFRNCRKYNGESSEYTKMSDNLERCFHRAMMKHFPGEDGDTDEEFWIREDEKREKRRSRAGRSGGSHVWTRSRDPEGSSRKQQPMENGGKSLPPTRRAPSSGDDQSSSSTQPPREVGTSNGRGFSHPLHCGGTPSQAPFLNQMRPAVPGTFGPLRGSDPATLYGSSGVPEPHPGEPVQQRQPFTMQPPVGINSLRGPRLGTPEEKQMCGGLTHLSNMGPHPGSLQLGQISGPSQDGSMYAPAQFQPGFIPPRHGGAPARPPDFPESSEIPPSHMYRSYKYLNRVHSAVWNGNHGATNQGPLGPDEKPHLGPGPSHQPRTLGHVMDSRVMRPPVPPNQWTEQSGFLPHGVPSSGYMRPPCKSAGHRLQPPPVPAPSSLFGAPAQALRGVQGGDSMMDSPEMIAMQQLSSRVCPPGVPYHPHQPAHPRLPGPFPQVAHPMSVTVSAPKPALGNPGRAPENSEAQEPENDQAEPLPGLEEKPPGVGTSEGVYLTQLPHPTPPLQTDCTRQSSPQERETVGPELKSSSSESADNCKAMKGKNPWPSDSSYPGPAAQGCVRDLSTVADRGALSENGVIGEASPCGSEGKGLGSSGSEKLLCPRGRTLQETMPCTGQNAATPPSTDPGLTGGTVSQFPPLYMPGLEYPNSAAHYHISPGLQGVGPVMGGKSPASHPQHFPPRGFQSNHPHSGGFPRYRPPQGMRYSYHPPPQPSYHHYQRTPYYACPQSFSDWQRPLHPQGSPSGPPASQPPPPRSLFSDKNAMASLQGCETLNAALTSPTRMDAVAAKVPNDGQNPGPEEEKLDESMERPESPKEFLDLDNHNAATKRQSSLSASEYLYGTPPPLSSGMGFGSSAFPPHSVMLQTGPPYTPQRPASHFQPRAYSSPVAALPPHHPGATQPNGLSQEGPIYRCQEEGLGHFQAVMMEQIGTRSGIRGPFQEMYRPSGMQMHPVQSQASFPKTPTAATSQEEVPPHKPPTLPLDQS

Sequence of Dual specificity mitogen-activated protein kinase kinase 4 (Homo sapiens) (P45985 whole entry, the tested form may be a part): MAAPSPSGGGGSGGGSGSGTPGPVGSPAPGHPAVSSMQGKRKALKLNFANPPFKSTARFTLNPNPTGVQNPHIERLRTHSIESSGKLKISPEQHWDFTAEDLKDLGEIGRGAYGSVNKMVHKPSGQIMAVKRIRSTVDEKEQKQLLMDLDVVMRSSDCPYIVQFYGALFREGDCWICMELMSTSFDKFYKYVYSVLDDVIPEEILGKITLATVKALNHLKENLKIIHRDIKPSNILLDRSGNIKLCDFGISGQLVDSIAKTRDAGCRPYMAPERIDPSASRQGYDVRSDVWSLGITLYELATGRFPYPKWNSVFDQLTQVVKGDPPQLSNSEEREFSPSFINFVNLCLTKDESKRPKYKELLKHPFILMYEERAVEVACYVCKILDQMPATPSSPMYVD

% of control [1]: 5.9%
% of control [2]: 4.4%
% of control [3]: 0.2%
% of control [4]: 3.4%
% of control [5]: 4%
% of control [6]: 2.2%
Compound: COc1ncc(-c2ccc3nccc(-c4ccnnc4)c3c2)cc1NS(=O)(=O)c1ccc(F)cc1F

% of control [7]: 5.8%
Compound: CN(C)C(=O)c1cc2cnc(Nc3ccc(N4CCNCC4)cn3)nc2n1C1CCCC1

dTm [8]: 2 K
dTm [9]: 2 K
Compound: COc1ccccc1C(=O)Nc1cc2c(cc1N1CCCC1)n(C)c(=O)n2C
